# According to patent US10336693B2 (priority 2015, dated 2019):
# Key:
# [1] = test system: neuraminidase (NA) of Influenza A/Korea/2785/2009 (H275Y mutation); type: biochemical, Influenza A virus
# [2] = test system: virus showing oseltamivir resistance due to the H275Y mutation; type: binding, influenza virus
# [3] = test system: neuraminidase site of oseltamivir-resistant virus (mutant type); parameters: species or system influenza virus
SMILES,inhibition of NA activity of mutant-type virus compared with wild-type virus [1],affinity for H275Y oseltamivir-resistant virus relative to oseltamivir sensitive virus [2],affinity for mutant type relative to wild type [3]
CCC(CC)O[C@@H]1C=C(C(=O)OCCCCCCN)C[C@H](N)[C@H]1NC(C)=O [oseltamivir hexylamine],inhibited the NA activity of the mutant-type virus (H275Y mutation) more significantly than the NA activity of the wild-type virus,about 1000 fold,
CCC(CC)O[C@@H]1C=C(C(=O)OCCCCCCS)C[C@H](N)[C@H]1NC(C)=O [oseltamivir hexylthiol],inhibited the NA activity of the mutant-type virus (H275Y mutation) more significantly than the NA activity of the wild-type virus,about 1000 fold,about 250 fold
